Results taken from patent US12202835B2, “Substituted aromatic ring-linked dioxinoquinazolines and dioxinoquinolines as kinase inhibitors” (BEIJING SCITECH-MQ PHARMACEUTICALS LIMITED, priority 2018, dated 2025).

Legend:
TRKA kinase = TRKA kinase (Homo sapiens (Human), UniProt P04629); experiment: Assay of small molecular compounds for inhibiting the activity of TRKA kinase (LANCE TR-FRET); format: biochemical
Procedure, shortened: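 TRKA (supplied as 2 nM 2× solution) was pre-reacted with compounds for 5 min at room temperature before a 4× ULight-TK peptide/ATP mix (400 nM/40 μM) started the 60-min dark reaction at 1% DMSO. After stop and 60-min detection, TR-FRET was read.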

Ba/F3-AXL cells = experiment: Assay for inhibiting the proliferation of Ba/F3-AXL cells (CCK-8); format: cell-based; conditions: 72 hours of incubation, medium with 100 ng/mL hGas6, CCK-8
Procedure: The values were then imported into Graphpad Prism 5 software for curve fitting, and IC50 was calculated.

Ba/F3 LMNA-NTRK1 cells = experiment: Assay for inhibiting the proliferation of Ba/F3 LMNA-NTRK1 cells (CCK-8); format: cell-based; conditions: Mus musculus, BaF3
Procedure, shortened: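 Viability was read as absorbance at 450 nm following 1–2 h CCK-8 incubation at 37 °C, relative to control and blank wells.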

MHCC97H cells = experiment: Assay for inhibiting the proliferation of MHCC97H cells (CCK-8); format: cell-based; conditions: Homo sapiens
Procedure, shortened: (§1)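 Cells seeded in 96-well plates overnight, then exposed 72 h to 9 three-fold dilutions of compound (0.25% DMSO final). Viability by CCK-8 (1-2 h at 37° C., OD 450 nm), survival normalized to untreated and cell-free blanks; IC50 by curve fitting.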

EBC1 cells = experiment: Assay for inhibiting the proliferation of EBC1 cells (CCK-8); format: cell-based; conditions: Homo sapiens, EBC-1
Procedure, shortened: as §1

Sequence of TRKA kinase (P04629 33-796): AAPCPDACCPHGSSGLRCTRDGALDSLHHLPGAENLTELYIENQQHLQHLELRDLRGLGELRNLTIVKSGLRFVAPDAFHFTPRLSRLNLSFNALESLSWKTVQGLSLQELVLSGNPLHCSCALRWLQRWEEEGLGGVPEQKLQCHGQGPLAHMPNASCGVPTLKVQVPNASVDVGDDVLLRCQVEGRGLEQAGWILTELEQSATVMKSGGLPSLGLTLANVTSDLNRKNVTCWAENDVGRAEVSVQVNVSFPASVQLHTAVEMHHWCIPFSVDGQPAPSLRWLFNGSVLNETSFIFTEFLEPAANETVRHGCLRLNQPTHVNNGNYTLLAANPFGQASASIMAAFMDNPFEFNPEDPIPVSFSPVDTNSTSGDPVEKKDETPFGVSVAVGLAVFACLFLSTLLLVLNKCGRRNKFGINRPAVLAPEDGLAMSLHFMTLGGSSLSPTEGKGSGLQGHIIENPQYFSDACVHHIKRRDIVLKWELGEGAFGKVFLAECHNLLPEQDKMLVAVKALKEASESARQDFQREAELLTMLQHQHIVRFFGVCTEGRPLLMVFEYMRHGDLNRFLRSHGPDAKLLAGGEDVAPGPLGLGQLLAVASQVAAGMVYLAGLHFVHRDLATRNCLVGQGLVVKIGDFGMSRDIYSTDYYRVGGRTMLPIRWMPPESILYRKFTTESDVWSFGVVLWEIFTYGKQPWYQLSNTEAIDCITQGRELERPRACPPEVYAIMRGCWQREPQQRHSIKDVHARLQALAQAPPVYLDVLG

| SMILES | IC50 (TRKA kinase) [nM] | IC50 (Ba/F3-AXL cells) [nM] | IC50 (Ba/F3 LMNA-NTRK1 cells) [nM] | IC50 (MHCC97H cells) [nM] | IC50 (EBC1 cells) [nM] |
| --- | --- | --- | --- | --- | --- |
| COc1cn(-c2ccc(F)cc2C)nc1C(=O)Nc1ccc(Oc2ncnc3cc(OCCCN4CCOCC4)c4c(c23)OCCO4)c(F)c1 [Example 11, 1-(4-fluoro-2-methylphenyl)-N-(3-fluoro-4-((5-(3-morpholinopropoxy)-2,3-dihydro-[1,4]dioxino[2,3-f]quinazolin-10-yl)oxy)phenyl)-4-methoxy-1H-pyrazole-3-carboxamide] |  |  |  | 200 to 1000 | 200 to 1000 |
| CCOc1ccn(-c2ccc(F)cc2)c(=O)c1C(=O)Nc1ccc(Oc2ccnc3cc(OC(C)C)c4c(c23)OCCO4)c(F)c1 [Example 63, N-(4-((5-isopropoxy-2,3-dihydro-[1,4]dioxino[2,3-f]quinolin-10-yl)oxy)-3-fluorophenyl)-4-ethoxy-1-(4-fluorophenyl)-2-oxo-1,2-dihydropyridine-3-carboxamide] | 50 to 500 | < 50 |  | 50 to 200 | ≤ 50 |
| Cn1cc(C(=O)Nc2ccc(Oc3ccnc4cc(OC5CCOC5)c5c(c34)OCCO5)c(F)c2)c(=O)n(-c2ccc(F)cc2)c1=O (stereo not shown) [Example 90, N-(3-fluoro-4-((5-((tetrahydrofuran-3-yl)oxy)-2,3-dihydro-[1,4]dioxino[2,3-f]quinolin-10-yl)oxy)phenyl)-3-(4-fluorophenyl)-1-methyl-2,4-dioxo-1,2,3,4-tetrahydropyrimidine-5-carboxamide] | < 50 | < 50 | < 50 |  |  |
| CCOc1ccn(-c2ccc(F)cc2)c(=O)c1C(=O)Nc1ccc(Oc2ccnc3cc(OCCCN4CCCC4)c4c(c23)OCCO4)c(F)c1 [Example 52, N-(4-((5-(3-(pyrrolidin-1-yl)propoxy)-2,3-dihydro-[1,4]dioxino[2,3-f]quinolin-10-yl)oxy)-3-fluorophenyl)-4-ethoxy-1-(4-fluorophenyl)-2-oxo-1,2-dihydropyridine-3-carboxamide] | < 50 | < 50 | < 50 | ≤ 50 |  |
| CC(C)n1cc(C(=O)Nc2ccc(Oc3ccnc4cc(OCCCN5CCS(=O)(=O)CC5)c5c(c34)OCCO5)c(F)c2)c(=O)n(-c2ccc(F)cc2)c1=O [Example 76, N-(3-fluoro-4-((5-(3-(1,1-dioxidothiomorpholino)propoxy)-2,3-dihydro-[1,4]dioxino[2,3-f]quinolin-10-yl)oxy)phenyl)-3-(4-fluorophenyl)-1-isopropyl-2,4-dioxo-1,2,3,4-tetrahydropyrimidine-5-carboxamide] | < 50 | < 50 | < 50 |  |  |
| COc1cc2nccc(Oc3ccc(NC(=O)c4cn(CCO)c(=O)n(-c5ccc(F)cc5)c4=O)cc3F)c2c2c1OCCO2 [Example 45, N-(3-fluoro-4-((5-methoxy-2,3-dihydro-[1,4]dioxino[2,3-f]quinolin-10-yl)oxy)phenyl)-3-(4-fluorophenyl)-1-(2-hydroxyethyl)-2,4-dioxo-1,2,3,4-tetrahydropyrimidine-5-carboxamide] | 50 to 500 | < 50 |  | 200 to 1000 | 50 to 200 |
| CCOc1ccn(-c2ccc(F)cc2)c(=O)c1C(=O)Nc1ccc(Oc2ncnc3cc(OC)c4c(c23)OCCO4)c(F)c1 [Example 3, N-(3-fluoro-4-((5-methoxy-2,3-dihydro-[1,4]dioxino[2,3-f]quinazolin-10-yl)oxy)phenyl)-1-(4-fluorophenyl)-4-ethoxy-2-oxo-1,2-dihydropyridine-3-carboxamide] | < 50 |  |  | 50 to 200 | 50 to 200 |
| CC(C)n1cc(C(=O)Nc2ccc(Oc3ccnc4cc(OCCO)c5c(c34)OCCO5)c(F)c2)c(=O)n(-c2ccc(F)cc2)c1=O [Example 78, N-(3-fluoro-4-((5-(2-hydroxyethoxy)-2,3-dihydro-[1,4]dioxino[2,3-f]quinolin-10-yl)oxy)phenyl)-3-(4-fluorophenyl)-1-isopropyl-2,4-dioxo-1,2,3,4-tetrahydropyrimidine-5-carboxamide] | < 50 | < 50 | < 50 |  |  |
| CCOc1cn(-c2ccc(F)cc2C)nc1C(=O)Nc1ccc(Oc2ncnc3cc(OCCCN4CCOCC4)c4c(c23)OCCO4)c(F)c1 [Example 12, 1-(4-fluoro-2-methylphenyl)-N-(3-fluoro-4-((5-(3-morpholinopropoxy)-2,3-dihydro-[1,4]dioxino[2,3-f]quinazolin-10-yl)oxy)phenyl)-4-ethoxy-1H-pyrazole-3-carboxamide] |  |  |  | 50 to 200 | 200 to 1000 |
| Cn1cc(C(=O)Nc2ccc(Oc3ccnc4cc(OC5CCOCC5)c5c(c34)OCCO5)c(F)c2)c(=O)n(-c2ccc(F)cc2)c1=O [Example 91, N-(3-fluoro-4-((5-((tetrahydropyran-4-yl)oxy)-2,3-dihydro-[1,4]dioxino[2,3-f]quinolin-10-yl)oxy)phenyl)-3-(4-fluorophenyl)-1-methyl-2,4-dioxo-1,2,3,4-tetrahydropyrimidine-5-carboxamide] | < 50 | < 50 | < 50 |  |  |

Continued, in another order:

| IC50 (TRKA kinase) [nM] | IC50 (Ba/F3-AXL cells) [nM] | IC50 (Ba/F3 LMNA-NTRK1 cells) [nM] | SMILES | IC50 (MHCC97H cells) [nM] | IC50 (EBC1 cells) [nM] |
| --- | --- | --- | --- | --- | --- |
| < 50 | < 50 | < 50 | CCOc1ccn(-c2ccc(F)cc2)c(=O)c1C(=O)Nc1ccc(Oc2ccnc3cc(OCCCN(C)C4CCC4)c4c(c23)OCCO4)c(F)c1 [Example 71, N-(4-((5-(3-(cyclobutyl(methyl)amino)propoxy)-2,3-dihydro-[1,4]dioxino[2,3-f]quinolin-10-yl)oxy)-3-fluorophenyl)-4-ethoxy-1-(4-fluorophenyl)-2-oxo-1,2-dihydropyridine-3-carboxamide] | ≤ 50 | ≤ 50 |
| < 50 | < 50 | 50 to 200 | CCOc1ccn(-c2ccc(F)cc2)c(=O)c1C(=O)Nc1ccc(Oc2ccnc3cc(OC4CCOC4)c4c(c23)OCCO4)c(F)c1 (stereo not shown) [Example 65, N-(4-((5-((tetrahydrofuran-3-yl)oxy)-2,3-dihydro-[1,4]dioxino[2,3-f]quinolin-10-yl)oxy)-3-fluorophenyl)-4-ethoxy-1-(4-fluorophenyl)-2-oxo-1,2-dihydropyridine-3-carboxamide] | ≤ 50 | ≤ 50 |
| < 50 | < 50 | < 50 | CCOc1ccn(-c2ccc(F)cc2)c(=O)c1C(=O)Nc1ccc(Oc2ccnc3cc(OCCCN4CCOCC4)c4c(c23)OCCO4)cc1Cl [Example 73, N-(2-chloro-4-((5-(3-morpholinopropoxy)-2,3-dihydro-[1,4]dioxino[2,3-f]quinolin-10-yl)oxy)phenyl)-4-ethoxy-1-(4-fluorophenyl)-2-oxo-1,2-dihydropyridine-3-carboxamide] | ≤ 50 | ≤ 50 |
| < 50 | < 50 |  | COc1cc2ncnc(Oc3ccc(NC(=O)c4cccn(-c5ccc(F)cc5)c4=O)cc3F)c2c2c1OCCO2 [Example 1, N-(3-fluoro-4-((5-methoxy-2,3-dihydro-[1,4]dioxino[2,3-f]quinazolin-10-yl)oxy)phenyl)-1-(4-fluorophenyl)-2-oxo-1,2-dihydropyridine-3-carboxamide] | ≤ 50 | 50 to 200 |
| < 50 | < 50 | < 50 | COCCCOc1cc2nccc(Oc3ccc(NC(=O)c4cn(C)c(=O)n(-c5ccc(F)cc5)c4=O)cc3F)c2c2c1OCCO2 [Example 80, N-(3-fluoro-4-((5-(3-methoxypropoxy)-2,3-dihydro-[1,4]dioxino[2,3-f]quinolin-10-yl)oxy)phenyl)-3-(4-fluorophenyl)-1-methyl-2,4-dioxo-1,2,3,4-tetrahydropyrimidine-5-carboxamide] | ≤ 50 | ≤ 50 |
| < 50 | < 50 | < 50 | CCOc1ccn(-c2ccc(F)cc2)c(=O)c1C(=O)Nc1ccc(Oc2ccnc3cc(OCCCN4CCS(=O)(=O)CC4)c4c(c23)OCCO4)c(F)c1 [Example 51, N-(4-((5-(3-(1,1-dioxidothiomorpholino)propoxy)-2,3-dihydro-[1,4]dioxino[2,3-f]quinolin-1 0-yl)oxy)-3-fluorophenyl)-4-ethoxy-1-(4-fluorophenyl)-2-oxo-1,2-dihydropyridine-3-carboxamide] | ≤ 50 | ≤ 50 |
| < 50 | < 50 |  | COc1cc2ncnc(Oc3ccc(NC(=O)c4c(OC)ccn(-c5ccc(F)cc5)c4=O)cc3F)c2c2c1OCCO2 [Example 2, N-(3-fluoro-4-((5-methoxy-2,3-dihydro-[1,4]dioxino[2,3-f]quinazolin-10-yl)oxy)phenyl)-1-(4-fluorophenyl)-4-methoxy-2-oxo-1,2-dihydropyridine-3-carboxamide] | 200 to 1000 | 50 to 200 |
| < 50 | < 50 | 200 to 1000 | CC(C)n1cc(C(=O)Nc2ccc(Oc3ccnc4cc(OCCCN5CCC(C)(N)CC5)c5c(c34)OCCO5)c(F)c2)c(=O)n(-c2ccc(F)cc2)c1=O [Example 93, N-(3-fluoro-4-((5-(3-(4-amino-4-methylpiperidin-1-yl)propoxy)-2,3-dihydro-[1,4]dioxino[2,3-f]quinolin-10-yl)oxy)phenyl)-3-(4-fluorophenyl)-1-isopropyl-2,4-dioxo-1,2,3,4-tetrahydropyrimidine-5-carboxamide] |  |  |
